Key:
Format in all cases: cell-based
[1] = tested on: MCF-7 [HER-2−, EGFR−; adenocarcinoma; ATCC HTB22] cells; experiment: SRB cell survival / growth inhibition, MCF-7 cells; conditions: MCF-7, no HER-2
Protocol: (§1) The combination was tested in three breast cancer cell lines of differing genotypes.
(§2) Cells from each of these cell lines were incubated in the presence of a range of concentrations ([…]) for each drug. […] Compound dilutions were prepared in the same medium, at 2× final concentration, and 100 μl of the drug dilution was added to the cell-containing wells.
(§3) Serial dilutions of one compound were prepared in the presence of a fixed dose of a second compound. Alternatively, a checkerboard dilution series was employed. Cells were cultured for three days in the presence of the drugs. Untreated cells were included as controls. The percentage of surviving cells was determined using sulforhodamine B (SRB, Sigma-Aldrich, St Louis, Mo.), a protein binding dye. Cellular protein was precipitated in each well by the addition of 50 μl 50% cold trichloroacetic acid. After 1 hour, the plates were washed extensively in water and dried. SRB dye reagent (0.4% SRB in 1% acetic acid, 80 μl per well) was added and plates were kept at room temperature for ten minutes. […] Cell-associated dye was dissolved in 10 mM Tris (150 μl) and the absorbance was read at 540 nm in a microtiter plate reader. The concentration of compound that caused a fixed percentage inhibition of growth was determined by plotting cell survival (relative to untreated cells) against the compound dose.

[2] = tested on: MDA-MB-361 [HER-2+ (non-amplified); adenocarcinoma; ATCC HTB 27] cells; experiment: SRB cell survival / growth inhibition, MDA-MB-361 cells; conditions: MDA-MB-361, lower levels of HER-2 without amplification
Protocol: as §1, §2, §3

[3] = tested on: BT474 [HER-2+ (amplified); ATCC HTB-20] cells; experiment: SRB cell survival / growth inhibition, BT474 cells
Protocol: as §1, §2, §3

CCOc1cc2ncc(C#N)c(Nc3ccc(OCc4ccccn4)c(Cl)c3)c2cc1NC(=O)/C=C/CN(C)C [HKI-272, (E)-N-{4-[3-chloro-4-(2-pyridinylmethoxy)anilino]-3-cyano-7-ethoxy-6-quinolinyl}-4-(dimethylamino)-2-butenamide]
sensitivity of the cell line to the single agent [1]: resistant
sensitivity of the cell line to the single agent [2]: less sensitive
sensitivity of the cell line to the single agent [3]: highly sensitive

From US10729672B2 (Wyeth LLC, priority 2005, dated 2020)
